Values belong to the compound of their own block, whether it stands above or below them. Ends that are not written are not given here. Peptide text beside a SMILES is read from it.
Columns and labels:
S100A6 [1] = target: T1, S100A6 (Oryctolagus cuniculus, UniProt P30801); format: binding, rabbit; conditions: 25 °C, pH 7.0, 10 mM Ca^2+; for heat of binding in ITC: no affinity could be measured
S100A6 [2] = target: T1, S100A6; assay: NMR titration / chemical shift perturbation, SIP; format: binding, rabbit; conditions: 30 °C
SCF-TBL1 E3 ligase = conditions: SGS domain mutant of SIP; cited from earlier work
S100A6 [3] = conditions: cited from earlier work

Compound: CC[C@H](C)[C@H](NC(=O)[C@H](CCCCN)NC(=O)[C@H](CCCCN)NC(=O)[C@H](CC(C)C)NC(=O)[C@@H](NC(=O)[C@H](CC(N)=O)NC(=O)[C@H](CCSC)NC(=O)[C@H](CC(C)C)NC(=O)CNC(=O)[C@H](CCC(=O)O)NC(=O)[C@H](CO)NC(=O)[C@H](CO)NC(=O)CNC(=O)[C@@H]1CCCN1C(=O)CN)C(C)C)C(=O)N[C@@H](Cc1ccc(O)cc1)C(=O)N[C@@H](CCC(=O)O)C(=O)N[C@@H](CC(=O)O)C(=O)NCC(=O)N[C@@H](CC(=O)O)C(=O)N[C@@H](CC(=O)O)C(=O)N[C@@H](CC(=O)O)C(=O)N[C@@H](CCSC)C(=O)N[C@@H](CCCCN)C(=O)N[C@@H](CCCNC(=N)N)C(=O)N[C@H](C(=O)N[C@H](C(=O)N[C@@H](CC(N)=O)C(=O)N[C@@H](CCCCN)C(=O)N[C@@H](C)C(=O)N[C@@H](Cc1c[nH]c2ccccc12)C(=O)N[C@H](C(=O)N[C@@H](CCC(=O)O)C(=O)N[C@@H](CO)C(=O)N[C@@H](CCCNC(=N)N)C(=O)O)C(C)C)[C@@H](C)CC)[C@@H](C)O [SIP(189–219)] (H-GPGSSEGLMNVLKKIYEDGDDDMKRTINKAWVESR-OH)
- exchange regime of the interaction (NMR titration) (S100A6 [2]; 15N-1H HSQC, pH 6.5, 10 mM Ca^2+): intermediate-fast exchange regime
- binding stoichiometry by NMR (S100A6 [2]; 15N-labeled S100A6 0.1 mM, 50 mM Tris pH 6.5, 10 mM Ca^2+): two SIP molecules are symmetrically bound to the S100A6 dimer

Compound: E217K: SGS domain mutant of SIP
- function of the E3 ligase, in words (SCF-TBL1 E3 ligase): disrupt the function of the E3 ligase

Compound: SIP L196A: full length SIP construct, substitution of Leu196 for Ala
- heat of binding in ITC (S100A6 [1]): did not produce detectable heat changes

Compound: SIP(203–219): SIP fragment for second putative helix (GDDDMKRTINKAWVESR; not fully specified)
- heat of binding in ITC (S100A6 [1]): did not produce any observable heat of binding

Continued, in another order:

- reduction of S100A6 binding affinity (S100A6 [1]; ITC, SIP fragment vs SIP(189–219)): 4 fold
Compound: CC[C@H](C)[C@H](NC(=O)[C@H](CCCCN)NC(=O)[C@H](CCCCN)NC(=O)[C@H](CC(C)C)NC(=O)[C@@H](NC(=O)[C@H](CC(N)=O)NC(=O)[C@H](CCSC)NC(=O)[C@H](CC(C)C)NC(=O)CNC(=O)[C@H](CCC(=O)O)NC(=O)[C@H](CO)NC(=O)[C@H](CO)NC(=O)CNC(=O)[C@@H]1CCCN1C(=O)CN)C(C)C)C(=O)N[C@@H](Cc1ccc(O)cc1)C(=O)N[C@@H](CCC(=O)O)C(=O)N[C@@H](CC(=O)O)C(=O)NCC(=O)O [SIP(189–203)] (H-GPGSSEGLMNVLKKIYEDG-OH)

- S100A6 binding affinity, in words (S100A6 [1]; ITC, compared with full-length SIP / SIP-SGS): very similar S100A6 binding affinities
Compound: isolated SGS domain fragment: intrinsically disordered SGS (Sgt1 specific) domain (E178-F229) (EKPSYDTEADPSEGLMNVLKKIYEDGDDDMKRTINKAWVESREKQAREDTEF; left off: His-tag, N-terminal, cleaved)
- Ca^2+ dependence of S100A6 binding (S100A6 [3]): strictly Ca^2+ dependent
